Reference: ChEMBL document CHEMBL4229379, “Synthesis and structure-activity relationship of novel bisindole amidines active against MDR Gram-positive and Gram-negative bacteria” (Eur J Med Chem, 2018)

Tests used:
Assay type in all cases: functional
[1] = tested on: Staphylococcus epidermidis; test: Antibacterial activity against methicillin-sensitive Staphylococcus epidermidis ATCC 12228 after 18 hrs by CLSI broth microdilution method; details: ATCC 12228, 18 h
[2] = tested on: Staphylococcus epidermidis; test: Antibacterial activity against methicillin-resistant Staphylococcus epidermidis 12-8 after 18 hrs by CLSI broth microdilution method; details: 12-8, 18 h
Staphylococcus aureus [3] = test: Antibacterial activity against methicillin-sensitive Staphylococcus aureus ATCC 29213 after 18 hrs by CLSI broth microdilution method; details: ATCC 29213, 18 h
Staphylococcus aureus [4] = test: Antibacterial activity against methicillin-resistant Staphylococcus aureus 12-33 after 18 hrs by CLSI broth microdilution method; details: 12-33, 18 h
Enterococcus faecalis [5] = test: Antibacterial activity against vancomycin-sensitive Enterococcus faecalis ATCC 29212 after 18 hrs by CLSI broth microdilution method; details: ATCC 29212, 18 h
Enterococcus faecalis [6] = test: Antibacterial activity against vancomycin-resistant Enterococcus faecalis 09-9 after 18 hrs by CLSI broth microdilution method; details: 09-9, 18 h
Enterococcus faecium [7] = test: Antibacterial activity against vancomycin-resistant Enterococcus faecium ATCC 700221 after 18 hrs by CLSI broth microdilution method; details: ATCC 700221, 18 h
Escherichia coli [8] = test: Antibacterial activity against extended-spectrum beta-lactamase deficient Escherichia coli ATCC 25922 after 18 hrs by CLSI broth microdilution method; details: ATCC 25922, 18 h
Klebsiella pneumoniae [9] = test: Antibacterial activity against extended-spectrum beta-lactamase harboring Klebsiella pneumoniae ATCC 700603 after 18 hrs by CLSI broth microdilution method; details: Klebsiella pneumoniae, 700603, 18 h
Klebsiella pneumoniae [10] = test: Antibacterial activity against new delhi metallo-beta-lactamase-1 harboring Klebsiella pneumoniae ATCC BAA-2146 after 18 hrs by CLSI broth microdilution method; details: ATCC BAA-2146, 18 h
Klebsiella pneumoniae [11] = test: Antibacterial activity against extended-spectrum beta-lactamase harboring Klebsiella pneumoniae 12-8 after 18 hrs by CLSI broth microdilution method; details: 12-8, 18 h
Pseudomonas aeruginosa [12] = test: Antibacterial activity against Pseudomonas aeruginosa ATCC 27853 after 18 hrs by CLSI broth microdilution method; details: ATCC 27853, 18 h
[13] = tested on: Acinetobacter calcoaceticus; test: Antibacterial activity against Acinetobacter calcoaceticus ATCC 19606 after 18 hrs by CLSI broth microdilution method; details: ATCC 19606, 18 h
Proteus mirabilis = test: Antibacterial activity against Proteus mirabilis 12-6 after 18 hrs by CLSI broth microdilution method; details: 12-6, 18 h
Escherichia coli [14] = test: Antibacterial activity against extended-spectrum beta-lactamase harboring Escherichia coli 13-1 after 18 hrs by CLSI broth microdilution method; details: 13-1, 18 h
Escherichia coli [15] = test: Antibacterial activity against extended-spectrum beta-lactamase harboring Escherichia coli CDC1001728 after 18 hrs by CLSI broth microdilution method; details: CDC1001728, 18 h
Klebsiella pneumoniae [16] = test: Antibacterial activity against new delhi metallo-beta-lactamase-1 harboring Klebsiella pneumoniae 13-1 after 18 hrs by CLSI broth microdilution method; details: 13-1, 18 h
[17] = tested on: Acinetobacter calcoaceticus; test: Antibacterial activity against carbapenem-resistant Acinetobacter calcoaceticus 12-6 after 18 hrs by CLSI broth microdilution method; details: 12-6, 18 h
Klebsiella aerogenes [18] = test: Antibacterial activity against carbapenem-resistant Enterobacter aerogenes 11-4 after 18 hrs by CLSI broth microdilution method; details: 11-4, 18 h
Enterobacter cloacae [19] = test: Antibacterial activity against new delhi metallo-beta-lactamase-1 harboring Enterobacter cloacae CDC1000654 after 18 hrs by CLSI broth microdilution method; details: CDC1000654, 18 h
Enterobacter cloacae [20] = test: Antibacterial activity against new delhi metallo-beta-lactamase-1 harboring Enterobacter cloacae 13-1 after 18 hrs by CLSI broth microdilution method; details: 13-1, 18 h
[21] = tested on: Staphylococcus epidermidis; test: Antibacterial activity against methicillin-sensitive Staphylococcus epidermidis 12-6 after 18 hrs by CLSI broth microdilution method; details: 12-6, 18 h
Staphylococcus aureus [22] = test: Antibacterial activity against methicillin-resistant Staphylococcus aureus ATCC 33591 after 18 hrs by CLSI broth microdilution method; details: ATCC 33591, 18 h
Staphylococcus aureus [23] = test: Antibacterial activity against methicillin-sensitive Staphylococcus aureus 15 after 18 hrs by CLSI broth microdilution method; details: Staphylococcus aureus, 15, 18 h
Staphylococcus aureus [24] = test: Antibacterial activity against methicillin-sensitive Staphylococcus aureus 12-28 after 18 hrs by CLSI broth microdilution method; details: 12-28, 18 h
Enterococcus faecalis [25] = test: Antibacterial activity against vancomycin-resistant Enterococcus faecalis ATCC 51299 after 18 hrs by CLSI broth microdilution method; details: ATCC 51299, 18 h
Enterococcus faecalis [26] = test: Antibacterial activity against vancomycin-sensitive Enterococcus faecalis 12-5 after 18 hrs by CLSI broth microdilution method; details: 12-5, 18 h
Enterococcus faecium [27] = test: Antibacterial activity against vancomycin-resistant Enterococcus faecium 12-1 after 18 hrs by CLSI broth microdilution method; details: 12-1, 18 h
Escherichia coli [28] = test: Antibacterial activity against extended-spectrum beta-lactamase deficient Escherichia coli 1515 after 18 hrs by CLSI broth microdilution method; details: Escherichia coli, 1515, 18 h
Klebsiella pneumoniae [29] = test: Antibacterial activity against extended-spectrum beta-lactamase deficient Klebsiella pneumoniae 7 after 18 hrs by CLSI broth microdilution method; details: Klebsiella pneumoniae, 7, 18 h
Klebsiella pneumoniae [30] = test: Antibacterial activity against extended-spectrum beta-lactamase deficient Klebsiella pneumoniae 12-4 after 18 hrs by CLSI broth microdilution method; details: 12-4, 18 h
Pseudomonas aeruginosa [31] = test: Antibacterial activity against Pseudomonas aeruginosa PAO1 after 18 hrs by CLSI broth microdilution method; details: PAO1, 18 h
Pseudomonas aeruginosa [32] = test: Antibacterial activity against Pseudomonas aeruginosa 12-16 after 18 hrs by CLSI broth microdilution method; details: 12-16, 18 h
Klebsiella aerogenes [33] = test: Antibacterial activity against Enterobacter aerogenes ATCC 13048 after 18 hrs by CLSI broth microdilution method; details: ATCC 13048, 18 h
Serratia marcescens = test: Antibacterial activity against Serratia marcescens ATCC 21074 after 18 hrs by CLSI broth microdilution method; details: ATCC 21074, 18 h
Providencia rettgeri = test: Antibacterial activity against Providencia rettgeri ATCC 31052 after 18 hrs by CLSI broth microdilution method; details: ATCC 31052, 18 h
Proteus vulgaris = test: Antibacterial activity against Proteus vulgaris ATCC 29905 after 18 hrs by CLSI broth microdilution method; details: ATCC 29905, 18 h
Citrobacter freundii = test: Antibacterial activity against Citrobacter freundii ATCC 43864 after 18 hrs by CLSI broth microdilution method; details: ATCC 43864, 18 h
Staphylococcus aureus [34] = test: Antibacterial activity against methicillin-resistant Staphylococcus aureus ATCC 33591 infected in ICR mouse assessed as mouse survival at 2.5 mg/kg, iv administered at 1 and 5 hrs post infection and measured on day 7 day post last dose (reference value: 0%); details: ATCC 33591, iv
Staphylococcus aureus [35] = test: Antibacterial activity against methicillin-resistant Staphylococcus aureus ATCC 33591 infected in ICR mouse assessed as mouse survival at 3.5 mg/kg, iv administered at 1 and 5 hrs post infection and measured on day 7 day post last dose (reference value: 0%); details: ATCC 33591, iv

CN(C)C(=N)c1ccc2cc(-c3ccc(-c4cc5ccc(C(=N)N(C)C)cc5[nH]4)cc3)[nH]c2c1
64 µg/mL: MIC (Pseudomonas aeruginosa [31]) | MIC (Pseudomonas aeruginosa [32])
16 µg/mL: MIC (Serratia marcescens)
50%: survival at 2.5 mg/kg (Staphylococcus aureus [34])
1 µg/mL: MIC (Enterococcus faecalis [5]) | MIC (Enterococcus faecalis [6]) | MIC (Enterococcus faecium [7]) | MIC (Escherichia coli [8]) | MIC (Enterococcus faecalis [25]) | MIC (Escherichia coli [28])
0.25 µg/mL: MIC [2] | MIC (Staphylococcus aureus [3]) | MIC (Staphylococcus aureus [4]) | MIC (Staphylococcus aureus [22]) | MIC (Staphylococcus aureus [23]) | MIC (Staphylococcus aureus [24])
0.125 µg/mL: MIC [1] | MIC [21]
2 µg/mL: MIC (Klebsiella pneumoniae [10]) | MIC (Escherichia coli [14]) | MIC (Escherichia coli [15]) | MIC (Enterococcus faecalis [26]) | MIC (Klebsiella pneumoniae [29]) | MIC (Klebsiella aerogenes [33]) | MIC (Providencia rettgeri) | MIC (Citrobacter freundii)
80%: survival at 3.5 mg/kg (Staphylococcus aureus [35])
8 µg/mL: MIC [13] | MIC (Proteus mirabilis) | MIC [17] | MIC (Klebsiella aerogenes [18])
4 µg/mL: MIC (Klebsiella pneumoniae [9]) | MIC (Klebsiella pneumoniae [11]) | MIC (Pseudomonas aeruginosa [12]) | MIC (Klebsiella pneumoniae [16]) | MIC (Enterobacter cloacae [19]) | MIC (Enterobacter cloacae [20]) | MIC (Klebsiella pneumoniae [30]) | MIC (Proteus vulgaris)
0.5 µg/mL: MIC (Enterococcus faecium [27])
